# According to the OligoGym collection:
# Bases are written 5' to 3'; sugars and linkages follow in the same order, as letters with counts (s phosphorothioate, o phosphodiester; PS: all linkages phosphorothioate). The collection does not say whether C is 5-methylated. l = locked nucleic acid (LNA); d = 2'-deoxy (DNA)
# Target: Tau
# Assay: rat primary cortical neurons, FLIPR, 25 uM ASO
row,Sequence,calcium oscillation score
1,"CAAACCAACTCAACATTACC (sugars l4 d14 l2, PS)",94.7 % of control
2,"CAAACCACTCTTATTCTTT (sugars l3 d12 l4, PS)",83.2 % of control
3,"CAAACCACTCTTATTCTTTA (sugars l4 d13 l3, PS)",68.5 % of control
4,"CAAACCAGTTACCATCA (sugars l4 d9 l4, PS)",87.7 % of control
5,"CAAACTTTTACTCTGAC (sugars l4 d9 l4, PS)",63.8 % of control
6,"CAAATCAATTCTCATTTCAA (sugars l4 d12 l4, PS)",65.7 % of control
7,"CAACAAACATCTAAACACCT (sugars l4 d13 l3, PS)",78.9 % of control
8,"CAACAATCCAACCACTAA (sugars l4 d10 l4, PS)",74.1 % of control
9,"CAACAATCCAACCACTAAA (sugars l4 d11 l4, PS)",89.8 % of control
10,"CAACAGATATTCATTCC (sugars l4 d9 l4, PS)",60.6 % of control
11,"CAACATTTGCACTCTC (sugars l4 d8 l4, PS)",67.7 % of control
12,"CAACATTTGCACTCTCT (sugars l2 d11 l4, PS)",53 % of control
13,"CAACTCAAACACTAACTT (sugars l4 d10 l4, PS)",64.5 % of control
14,"CAACTCAACATTACCCTTA (sugars l4 d13 l2, PS)",81.1 % of control
15,"CAACTCAACATTACCCTTAA (sugars l3 d14 l3, PS)",68 % of control
16,"CAACTCTTAGCATCCACT (sugars l2 d14 l2, PS)",51.6 % of control
17,"CAACTCTTTGAACACCC (sugars l4 d11 l2, PS)",76.8 % of control
18,"CAACTCTTTGAACACCCC (sugars l2 d14 l2, PS)",91.6 % of control
19,"CAACTGATTCCATCACC (sugars l4 d11 l2, PS)",87.8 % of control
20,"CAACTGGTTTGTAGAC (sugars l3 d10 l3, PS)",42.9 % of control
21,"CAACTGGTTTGTAGACTATT (sugars l3 d14 l3, PS)",6.64 % of control
22,"CAACTTTCATCTACTTTTCA (sugars l3 d14 l3, PS)",94.4 % of control

row,Sequence,calcium oscillation score
1,"CAAGAGGCACAAGT (sugars l3 d8 l3, PS)",36.2 % of control
2,"CAAGAGGCACAAGTC (sugars l3 d9 l3, PS)",112 % of control
3,"CAAGAGTCACTGCACTGCAT (sugars l3 d14 l3, PS)",50 % of control
4,"CAATCCATTTATATTCTTTT (sugars l4 d12 l4, PS)",63.2 % of control
5,"CAATCCTAAACAATGC (sugars l4 d8 l4, PS)",45.4 % of control
6,"CAATCCTAAACAATGCC (sugars l2 d11 l4, PS)",41.8 % of control
7,"CAATTAACCGAACTGC (sugars l3 d10 l3, PS)",89.7 % of control
8,"CAATTCTCAGCACACCA (sugars l4 d11 l2, PS)",22.5 % of control
9,"CAATTCTCATTTCAACCTTC (sugars l2 d14 l4, PS)",54.1 % of control
10,"CAATTTGGAAAGATGAAATT (sugars l3 d14 l3, PS)",3.89 % of control
11,"CACAAACCAACTCAACATTA (sugars l4 d13 l3, PS)",82.7 % of control
12,"CACAACCCAAGATTCC (sugars l3 d10 l3, PS)",58.8 % of control
13,"CACAAGTCCTTACAAA (sugars l3 d10 l3, PS)",194 % of control
14,"CACATGCACCCAACTCTA (sugars l2 d13 l3, PS)",60.2 % of control
15,"CACATGCTCACACACCAC (sugars l2 d13 l3, PS)",97.5 % of control
16,"CACATTTGCAAACCACA (sugars l3 d10 l4, PS)",67.4 % of control
17,"CACCACAGTCTTTTAAT (sugars l4 d10 l3, PS)",73.7 % of control
18,"CACCACTTTAATCTGCCT (sugars l2 d14 l2, PS)",41.1 % of control
19,"CACCATCCAAGTCAATGCCT (sugars l3 d14 l3, PS)",24.2 % of control
20,"CACCCAAACTCCAAGTTC (sugars l4 d12 l2, PS)",53.9 % of control
21,"CACCCACTTTCCTAATTC (sugars l3 d13 l2, PS)",65.6 % of control
22,"CACCCACTTTCCTAATTCC (sugars l1 d16 l2, PS)",60.9 % of control

row,Sequence,calcium oscillation score
1,"CACCCACTTTCCTAATTCCC (sugars l1 d17 l2, PS)",55.1 % of control
2,"CACCCATCAATTTGGAAAGA (sugars l3 d14 l3, PS)",91.5 % of control
3,"CACCCTAAACCATGAT (sugars l3 d10 l3, PS)",71.4 % of control
4,"CACCCTTACACATAGC (sugars l3 d11 l2, PS)",60.6 % of control
5,"CACCCTTACACATAGCT (sugars l3 d12 l2, PS)",55.6 % of control
6,"CACCTCATTAAGATCAC (sugars l3 d10 l4, PS)",76.6 % of control
7,"CACCTCCTATATTCTCAG (sugars l2 d12 l4, PS)",75.4 % of control
8,"CACCTCCTGGTTTATG (sugars l3 d10 l3, PS)",65.3 % of control
9,"CACCTCCTGGTTTATGATGG (sugars l3 d14 l3, PS)",0 % of control
10,"CACCTTACCACTTTCA (sugars l3 d10 l3, PS)",115 % of control
11,"CACCTTCAGCCCAACTT (sugars l4 d11 l2, PS)",41.6 % of control
12,"CACCTTGCTCAGGTCA (sugars l3 d10 l3, PS)",134 % of control
13,"CACCTTTTCATGTTAAA (sugars l4 d9 l4, PS)",97.5 % of control
14,"CACCTTTTTCCATCTTACTA (sugars l2 d16 l2, PS)",67.5 % of control
15,"CACTCAAGAAATGGTTTGCT (sugars l3 d14 l3, PS)",9.52 % of control
16,"CACTCTAACATCTTAG (sugars l4 d8 l4, PS)",77.6 % of control
17,"CACTCTCTGCATATAT (sugars l4 d9 l3, PS)",69 % of control
18,"CACTCTCTGCATATATA (sugars l4 d10 l3, PS)",48 % of control
19,"CACTCTGATACTATTAT (sugars l4 d9 l4, PS)",69 % of control
20,"CACTGGCGACTTGTACACGA (sugars l3 d14 l3, PS)",5.18 % of control
21,"CACTGTTACACATTTA (sugars l4 d8 l4, PS)",70.6 % of control
22,"CACTGTTACACATTTAT (sugars l4 d9 l4, PS)",68 % of control

row,Sequence,calcium oscillation score
1,"CACTTTACACATTAAATTTA (sugars l4 d12 l4, PS)",60.9 % of control
2,"CACTTTCCTAATTCCCAA (sugars l2 d13 l3, PS)",72.7 % of control
3,"CACTTTCCTAATTCCCAAA (sugars l3 d14 l2, PS)",68 % of control
4,"CACTTTCCTAATTCCCAAAT (sugars l2 d16 l2, PS)",62.1 % of control
5,"CAGAACTAAATTTACC (sugars l4 d8 l4, PS)",51.1 % of control
6,"CAGAATATTACACCAT (sugars l4 d8 l4, PS)",102 % of control
7,"CAGACACCACTGGCGACTTG (sugars l3 d14 l3, PS)",46.5 % of control
8,"CAGACCATCAATTTCCC (sugars l2 d13 l2, PS)",75.7 % of control
9,"CAGACCATCAATTTCCCT (sugars l2 d14 l2, PS)",72.5 % of control
10,"CAGAGCTGGGTGGTGTCTTT (sugars l3 d14 l3, PS)",0 % of control
11,"CAGAGGAACGTGTGGA (sugars l3 d10 l3, PS)",29.6 % of control
12,"CAGATATTCATTCCCTC (sugars l2 d12 l3, PS)",64.4 % of control
13,"CAGATTCCCCAACTCACA (sugars l2 d14 l2, PS)",71.5 % of control
14,"CAGATTTAATTCTCACT (sugars l4 d9 l4, PS)",77.7 % of control
15,"CAGATTTTACTTCCACCT (sugars l2 d14 l2, PS)",44.7 % of control
16,"CAGCACACAGGCAGCCACTG (sugars l3 d14 l3, PS)",23.8 % of control
17,"CAGCATTTCCATTTCATC (sugars l2 d13 l3, PS)",52.7 % of control
18,"CAGCCACTGTTGCCAC (sugars l2 d12 l2, PS)",51.2 % of control
19,"CAGCCATTTTCCATATA (sugars l3 d12 l2, PS)",47.6 % of control
20,"CAGCCTACTTTATTCCC (sugars l2 d13 l2, PS)",79.2 % of control
21,"CAGCCTACTTTATTCCCT (sugars l2 d14 l2, PS)",82.2 % of control
22,"CAGCGTGATCTTCCAT (sugars l3 d10 l3, PS)",13.4 % of control

row,Sequence,calcium oscillation score
1,"CAGCTAAGACCCTCAGGTTT (sugars l3 d14 l3, PS)",38.5 % of control
2,"CAGCTAGCGTGGCGAG (sugars l3 d10 l3, PS)",0 % of control
3,"CAGCTAGTGGTGCCACCTGA (sugars l3 d14 l3, PS)",16.5 % of control
4,"CAGCTATACTATTTCA (sugars l4 d10 l2, PS)",60.2 % of control
5,"CAGCTCTTCCATAAGCAGGG (sugars l3 d14 l3, PS)",60.6 % of control
6,"CAGCTTCGTCTTCCAG (sugars l3 d10 l3, PS)",75.9 % of control
7,"CAGCTTGTGGGTTTCAATCT (sugars l3 d14 l3, PS)",0 % of control
8,"CAGGAGTTGTAAGC (sugars l3 d8 l3, PS)",77.5 % of control
9,"CAGGCGCGAGCAGCGG (sugars l3 d10 l3, PS)",49.5 % of control
10,"CAGGGACCCAATCTTCGACT (sugars l3 d14 l3, PS)",9.04 % of control
11,"CAGGGACGTGGGTGATATTG (sugars l3 d14 l3, PS)",0 % of control
12,"CAGGGAGGCAGACACCTCGT (sugars l3 d14 l3, PS)",50.9 % of control
13,"CAGGTATCCAGCCATATTTC (sugars l3 d14 l3, PS)",27.5 % of control
14,"CAGGTCTGGCATGGGCACGG (sugars l3 d14 l3, PS)",0 % of control
15,"CAGGTTAAGTGATTAACCAA (sugars l3 d14 l3, PS)",17.4 % of control
16,"CAGTAACATCCATTTC (sugars l4 d8 l4, PS)",87.6 % of control
17,"CAGTAACATCCATTTCT (sugars l4 d11 l2, PS)",86.2 % of control
18,"CAGTCCCGTCTTTGCT (sugars l3 d10 l3, PS)",0 % of control
19,"CAGTCTTTATTAACAC (sugars l4 d8 l4, PS)",54 % of control
20,"CAGTCTTTATTAACACT (sugars l3 d10 l4, PS)",50.7 % of control
21,"CAGTTACCATCATACAT (sugars l3 d10 l4, PS)",89 % of control
